Source: patent US20110165085A1, “TUMOR SELECTIVE FLUORESCENT STAINING AGENT” (THE UNIVERSITY OF TOKYO, priority 2006, published 2011)

Key:
[1] = tested on: RGK1 (transformed, cancer model) and RGM1 (normal gastric mucosal epithelium) cells; assay: Flow cytometry screening: average fluorescence intensity ratio of RGK1 relative to RGM1; assay type: cell-based, rat
Description: Screening for candidate compounds was performed in a cultured cell system. As cultured cells, rat normal gastric mucosal epithelium derived cells, RGM1, and transformed cells thereof, RGK1, were used as model cells of normal cell and cancer cell, respectively. For the culture of RGM1 and RGK1, a DMEM/HAM F12 (1:1) medium (10% FBS, 0.1% penicillin streptomycin) was used. Each of the compounds shown below (concentration: 0-1 μM) was loaded on these cells for 10 minutes, then the medium was replaced with the medium not containing the compounds, and after a given time, average fluorescence intensity was determined by flow cytometry. Effectiveness of each compound was evaluated on the basis of average of fluorescence intensity ratio of RGK1 relative to RGM1.
Various ester derivatives converted from acetyl ester of FDA shown in Table I were compared by flow cytometry in the same manner as that used in Example 1.

[2] = tested on: cancer cells and normal cells; assay: Imaging of cancer and normal cells under a fluorescence microscope; assay type: cell-based, rat; settings: fluorescence microscope IX71, excitation 470-490 nm, filter 500 nm
Description: Imaging was performed by using FDAcr under a fluorescence microscope.

[3] = tested on: esophagus cancer lesion; assay: Fluorescence endoscopic imaging of NMBA rat esophagus cancer model; assay type: in vivo; settings: endoscope (FIG. 4)
Description: By using FDAcr, imaging of an NMBA rat, an esophagus cancer model, was performed. A rat (10-week old, male) was subcutaneously injected with 1 mg of NMBA 5 times per week for the first to 5th weeks, and once per week for 6th to 15th weeks, and used for the experiment after 16th week. The rat was anesthetized by intraperitoneal administration of Nembutal (1 mL/kg body weight) and fixed on a rest in the dorsal position to maintain the airway. An endoscope was inserted into the esophagus for observation. […] In the same manner as Example 5, a fluorescent endoscopic image was obtained by using Cy-7, a cyanine near-infrared fluorescent dye.

[4] = tested on: colon cancer lesion; assay: Fluorescence endoscopic imaging of colon cancer model rat; assay type: in vivo; settings: enema 15 ml of 100 μM in PBS, 3 minutes, fiberscope (FIG. 5)
Description: By using FEAcr, imaging of a colon cancer model rat was performed. A colon cancer model rat was anesthetized with ether, and inside the colon was washed with 0.6% aqueous acetic acid. The inside of the colon was washed two to three times with PBS maintained at 37° C., and then an enema with 15 ml of 100 μM FDAcr (PBS solution) was performed from the anus and the anus was clogged to stand for 3 minutes. After 3 minutes, the inside of the colon was washed two to three times with PBS maintained at 37° C. A fiberscope (BF-3C40) was inserted in the colon to observe pathological legions.

[5] = tested on: intracellular esterase (RGK1 and RGM1 cell lysates); assay: Hydrolytic enzyme activity for FDA in the two types of cell lysates; assay type: biochemical, rat
Excerpt: FDA is an esterase-sensitive fluorescent probe, and it enters into a cell by diffusion, then is hydrolyzed by an intracellular esterase to produce a fluorescent fluorescein, and gradually leaks out of the cell. Since the fluorescein is more hydrophilic compared with FDA, the leakage of the fluorescein out of the cell occurs much more slowly than the uptake of FDA into the cell. This process was compared for the normal cells and the cancer cells.

C=CC(=O)Oc1ccc2c(c1)Oc1cc(OC(=O)C=C)ccc1C21OC(=O)c2ccccc21 [FDAcr, fluorescein diacrylate]
performance for distinguishing cancer cells from normal cells (fluorescence intensity ratio) ([1]; flow cytometry as in Example 1, compared among ester derivatives of Table 1 (FIG. 2)): superior performance for distinguishing cancer cells from normal cells | fluorescence in cancer cells versus normal cells [2]: Strong fluorescence was observed in the cancer cells | fluorescence intensity around esophagus cancer lesion versus normal tissues [3]: higher than that of normal tissues | fluorescence at colon cancer lesion [4]: Strong fluorescence was observed at each colon cancer lesion

CC(=O)Oc1ccc2c(c1)Oc1cc(OC(C)=O)ccc1C21OC(=O)c2ccccc21 [FDA, fluorescein diacetate]
average of fluorescence intensity ratio of RGK1 relative to RGM1 ([1]; compound 0-1 μM loaded 10 minutes, medium replaced, flow cytometry after a given time, among candidate compounds (FIG. 1)): highest fluorescence intensity ratio | hydrolytic activity for FDA, RGK1 versus RGM1 [5]: about twice higher hydrolytic activity
